Experimental data taken from patent US11730720B2, “ALK5 inhibitors” (THERAVANCE BIOPHARMA R&D IP, LLC, priority 2018, dated 2023).

Tests used:
[1] = biological target: T1, recombinant human ALK5 (TGF-βR1) protein (Homo sapiens, UniProt P36897); test: Biochemical ALK5 (TGF-βR1) assay to measure pKi (LANCE Ultra ULight kinase assay); settings: apparent pKi, converted from pIC50 using the Cheng-Prusoff equation
T1 construct: purchased Life Technologies PR9075A
T1 sequence (P36897 34-503): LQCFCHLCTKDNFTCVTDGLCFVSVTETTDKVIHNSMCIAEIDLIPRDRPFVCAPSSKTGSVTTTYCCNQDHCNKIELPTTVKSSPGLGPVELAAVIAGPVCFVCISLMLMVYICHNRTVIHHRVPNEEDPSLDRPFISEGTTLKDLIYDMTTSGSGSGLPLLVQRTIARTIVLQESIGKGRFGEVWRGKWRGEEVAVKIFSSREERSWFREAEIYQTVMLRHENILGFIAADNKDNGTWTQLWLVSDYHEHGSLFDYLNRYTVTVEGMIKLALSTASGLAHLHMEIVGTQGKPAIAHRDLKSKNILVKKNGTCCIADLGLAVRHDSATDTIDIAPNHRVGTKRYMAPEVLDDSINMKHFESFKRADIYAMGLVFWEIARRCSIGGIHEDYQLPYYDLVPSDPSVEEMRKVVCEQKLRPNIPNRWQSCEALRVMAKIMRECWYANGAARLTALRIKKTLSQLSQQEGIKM
Method in brief: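 TR-FRET kinase format: compound dose range 10 μM–25 pM equilibrated 60 min with human ALK5 and ULight-labelled topoisomerase 2α peptide in HEPES/MgCl2 buffer pH 7.5 with DTT. Reaction started with ATP (125 μM stock, 5× final), 60 min at 37° C, stopped with EDTA/Eu-anti-phospho antibody; pKi derived from pIC50 via Cheng-Prusoff.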

[2] = test system: TGF-β-stimulated SMAD3 phosphorylation in BEAS-2B cells; test: Cellular ALK5 potency assay, inhibition of TGF-β stimulated pSMAD3 formation in BEAS-2B cells; assay type: cell-based; settings: Homo sapiens, inhibition of TGF-β (10 ng/mL) stimulated pSMAD3 formation, 1 hour compound incubation, read-out: BEAS2B pIC50 (converted)
Method in brief: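 Phospho-SMAD3 was quantified by AlphaLISA in lysates of human lung epithelial BEAS-2B cells. Compound was added 1 h (37 °C, HEPES/BSA-supplemented HBSS) before a 30 min challenge with 10 ng/mL TGF-β. Values are pIC50 relative to stimulated cells without compound.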

Row | Ki [1] [nM] | SMILES | IC50 [2] [nM]
1 | 3.98 to 31.6 | CC(C)N1CCN(CCNc2cnc3ccc(-c4c[nH]nc4-c4ccc(F)c(F)c4)nc3c2)CC1 [Compound 8-1, 6-(3-(3,4-difluorophenyl)-1H-pyrazol-4-yl)-N-(2-(4-isopropylpiperazin-1-yl)ethyl)-1,5-naphthyridin-3-amine] | 25.1 to 158
2 | 3.98 to 31.6 | CC1(C)CCCN1CCNc1cnc2ccc(-c3c[nH]nc3-c3ccc(F)c(F)c3)nc2c1 [Compound 8-2, 6-[3-(3,4-difluorophenyl)-1H-pyrazol-4-yl]-N-[2-(2,2-dimethylpyrrolidin-1-yl)ethyl]-1,5-naphthyridin-3-amine] | 25.1 to 158
3 | 0.398 to 3.16 | CN1CCN(C2CCN(c3cnc4ccc(-c5c[nH]nc5-c5ccc(F)c(F)c5)nc4c3)CC2)CC1 [Compound 8-3, 2-(3-(3,4-difluorophenyl)-1H-pyrazol-4-yl)-7-(4-(4-methylpiperazin-1-yl)piperidin-1-yl)-1,5-naphthyridine] | 25.1 to 158
4 | 3.98 to 31.6 | Fc1ccc(-c2n[nH]cc2-c2ccc3ncc(N4CCNCC4)cc3n2)cc1F [Compound 8-4, 2-[3-(3,4-difluorophenyl)-1H-pyrazol-4-yl]-7-piperazin-1-yl-1,5-naphthyridine] | 25.1 to 158
5 | 0.398 to 3.16 | CNC1CCN(c2cnc3ccc(-c4c[nH]nc4-c4ccc(F)c(F)c4)nc3c2)CC1 [Compound 8-6, 1-[6-[3-(3,4-difluorophenyl)-1H-pyrazol-4-yl]-1,5-naphthyridin-3-yl]-N-methyl-piperidin-4-amine] | 25.1 to 158
6 | 0.398 to 3.16 | CN(C)C1CCN(c2cnc3ccc(-c4c[nH]nc4-c4ccc(F)c(F)c4)nc3c2)CC1 [Compound 8-7, 1-[6-[3-(3,4-difluorophenyl)-1H-pyrazol-4-yl]-1,5-naphthyridin-3-yl]-N,N-dimethyl-piperidin-4-amine] | 25.1 to 158

Second part, the compound before the results:

Row | SMILES | Ki [1] [nM] | IC50 [2] [nM]
7 | Fc1cc(F)c(-c2n[nH]cc2-c2ccc3ncc(-c4nnc5n4CCN5)cc3n2)cc1Cl [Compound 6-64, 2-[3-(5-chloro-2,4-difluoro-phenyl)-1H-pyrazol-4-yl]-7-(6,7-dihydro-5H-imidazo[2,1-c][1,2,4]triazol-3-yl)-1,5-naphthyridine] | 0.398 to 3.16 | 200 to 1260
8 | Fc1cc(F)c(-c2n[nH]cc2-c2ccc3ncc(-c4ncc5n4CCN5)cc3n2)cc1Cl [Compound 6-65, 2-[3-(5-chloro-2,4-difluoro-phenyl)-1H-pyrazol-4-yl]-7-(2,3-dihydro-1H-imidazo[1,2-c]imidazol-5-yl)-1,5-naphthyridine] | 3.98 to 31.6 | 200 to 1260
9 | Fc1cc(F)c(-c2n[nH]cc2-c2ccc3ncc(NCC4CCCNC4)cc3n2)cc1Cl (centres unmarked) [Compound 6-66, 6-[3-(5-chloro-2,4-difluoro-phenyl)-1H-pyrazol-4-yl]-N-(3-piperidylmethyl)-1,5-naphthyridin-3-amine] | 0.398 to 3.16 | 200 to 1260
10 | CNCCn1cc(-c2cnc3ccc(-c4c[nH]nc4-c4cc(Cl)c(F)cc4F)nc3c2)nn1 [Compound 6-67, 2-[4-[6-[3-(5-chloro-2,4-difluoro-phenyl)-1H-pyrazol-4-yl]-1,5-naphthyridin-3-yl]triazol-1-yl]-N-methyl-ethanamine] | ≤ 0.0316 | 25.1 to 158
11 | O=C(O)[C@H]1CN(c2cnc3ccc(-c4c[nH]nc4-c4cc(Cl)c(F)cc4F)nc3c2)CCN1 [Compound 6-68, (2R)-4-[6-[3-(5-chloro-2,4-difluoro-phenyl)-1H-pyrazol-4-yl]-1,5-naphthyridin-3-yl]piperazine-2-carboxylic acid] | 0.398 to 3.16 | 200 to 1260
12 | Fc1cc(F)c(-c2n[nH]cc2-c2ccc3ncccc3n2)cc1Cl [Compound 6-71, 2-[3-(5-chloro-2,4-difluoro-phenyl)-1H-pyrazol-4-yl]-1,5-naphthyridine] | 0.398 to 3.16 | 25.1 to 158
13 | CC(CO)N1CCN(CCNc2cnc3ccc(-c4c[nH]nc4-c4cc(Cl)c(F)cc4F)nc3c2)CC1 (centres unmarked) [Compound 6-72, 2-[4-[2-[[6-[3-(5-chloro-2,4-difluoro-phenyl)-1H-pyrazol-4-yl]-1,5-naphthyridin-3-yl]amino]ethyl]piperazin-1-yl]propan-1-ol] | 0.0398 to 0.316 | 25.1 to 158
14 | C[C@@H]1CN(CCNc2cnc3ccc(-c4c[nH]nc4-c4cc(Cl)c(F)cc4F)nc3c2)C[C@H](C)N1 [Compound 6-74, 6-[3-(5-chloro-2,4-difluoro-phenyl)-1H-pyrazol-4-yl]-N-[2-[rac-(3R,5S)-3,5-dimethylpiperazin-1-yl]ethyl]-1,5-naphthyridin-3-amine] | 0.0398 to 0.316 | 25.1 to 158
15 | COC(=O)CC1CN(CCNc2cnc3ccc(-c4c[nH]nc4-c4cc(Cl)c(F)cc4F)nc3c2)CCN1 (centres unmarked) [Compound 6-75, methyl 2-[4-[2-[[6-[3-(5-chloro-2,4-difluoro-phenyl)-1H-pyrazol-4-yl]-1,5-naphthyridin-3-yl]amino]ethyl]piperazin-2-yl]acetate] | 0.398 to 3.16 | 25.1 to 158
16 | Fc1cc(F)c(-c2[nH]cnc2-c2ccc3ncc(NCCN4CCNCC4)cc3n2)cc1Cl [Compound 7-1, 6-(5-(5-chloro-2,4-difluorophenyl)-1H-imidazol-4-yl)-N-(2-(piperazin-1-yl)ethyl)-1,5-naphthyridin-3-amine] | 0.0398 to 0.316 | 25.1 to 158
17 | CC(C)N1CCN(CCNc2cnc3ccc(-c4nc[nH]c4-c4cc(Cl)c(F)cc4F)nc3c2)CC1 [Compound 7-2, 6-[5-(5-chloro-2,4-difluoro-phenyl)-1H-imidazol-4-yl]-N-[2-(4-isopropylpiperazin-1-yl)ethyl]-1,5-naphthyridin-3-amine] | 0.0398 to 0.316 | 25.1 to 158
18 | O=C(O)[C@H]1CN(c2cnc3ccc(-c4nc[nH]c4-c4cc(Cl)c(F)cc4F)nc3c2)CCN1 [Compound 7-3, (R)-4-(6-(5-(5-chloro-2,4-difluorophenyl)-1H-imidazol-4-yl)-1,5-naphthyridin-3-yl)piperazine-2-carboxylic acid] | 0.398 to 3.16 | 25.1 to 158
19 | CNCCn1cc(-c2cnc3ccc(-c4nc[nH]c4-c4cc(Cl)c(F)cc4F)nc3c2)cn1 [Compound 7-4, 2-(4-(6-(5-(5-chloro-2,4-difluorophenyl)-1H-imidazol-4-yl)-1,5-naphthyridin-3-yl)-1H-pyrazol-1-yl)-N-methylethan-1-amine] | 0.0398 to 0.316 | 25.1 to 158
20 | NCCn1cc(-c2cnc3ccc(-c4nc[nH]c4-c4cc(Cl)c(F)cc4F)nc3c2)cn1 [Compound 7-5, 2-[4-[6-[5-(5-chloro-2,4-difluoro-phenyl)-1H-imidazol-4-yl]-1,5-naphthyridin-3-yl]pyrazol-1-yl]ethanamine] | 0.0398 to 0.316 | 25.1 to 158
21 | CN(CC1CNC1)c1cnc2ccc(-c3nc[nH]c3-c3cc(Cl)c(F)cc3F)nc2c1 [Compound 7-6, N-(azetidin-3-ylmethyl)-6-[5-(5-chloro-2,4-difluoro-phenyl)-1H-imidazol-4-yl]-N-methyl-1,5-naphthyridin-3-amine] | 0.0398 to 0.316 | 25.1 to 158
22 | N[C@@H]1CCCC[C@H]1n1cc(-c2cnc3ccc(-c4nc[nH]c4-c4cc(Cl)c(F)cc4F)cc3c2)cn1 [Compound 7-7, (1R,2R)-2-[4-[6-[5-(5-chloro-2,4-difluoro-phenyl)-1H-imidazol-4-yl]-3-quinolyl]pyrazol-1-yl]cyclohexanamine] | 0.0398 to 0.316 | 25.1 to 158
